Our source for the T/C values is PubChem BioAssay AID248 (DTP/NCI, 2004).

The structures appear in SMILES notation. Values joined by “and” are separate entries in the source; they are usually repeats but may differ in a detail not shown here. Equal entries are not always repeated. Inconclusive results and toxic doses are left out.

The subject of the test is L1210 leukemia ip in BDF1 mice, survival T/C. The experiment in a line: NCI In Vivo Anticancer Drug Screen. Data for tumor model L1210 Leukemia (intraperitoneal) in B6D2F1 (BDF1) mice. The following applies: higher = longer survival. A digest of the protocol: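 Survival endpoint. Drug-treated group vs vehicle group, expressed as T divided by C. Tumor passaged by transplantation.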

Setting [1] is: endpoint: mean survival time, dose: 6.25 mg/kg/injection, schedule: Q01DX009 (ip), vehicle: Klucel (hydroxypropylcellulose) (HPC).
Setting [2] is: endpoint: mean survival time, dose: 12.5 mg/kg/injection, schedule: Q01DX009 (ip), vehicle: Klucel (hydroxypropylcellulose) (HPC).
Where [3] appears, read: endpoint: mean survival time, dose: 25.0 mg/kg/injection, schedule: Q01DX009 (ip), vehicle: Klucel (hydroxypropylcellulose) (HPC).
The mark [4] stands for this setting: endpoint: mean survival time, dose: 100.0 mg/kg/injection, schedule: Q04DX003 (ip), vehicle: saline.
Where [5] appears, read: endpoint: mean survival time, dose: 200.0 mg/kg/injection, schedule: Q04DX003 (ip), vehicle: saline.
Where [6] appears, read: endpoint: mean survival time, dose: 400.0 mg/kg/injection, schedule: Q04DX003 (ip), vehicle: saline.
The mark [7] stands for this setting: endpoint: mean survival time, dose: 100.0 mg/kg/injection, schedule: Q01DX009 (ip), vehicle: Klucel (hydroxypropylcellulose) (HPC).
Setting [8] is: endpoint: mean survival time, dose: 100.0 mg/kg/injection, schedule: Q04DX003 (ip), vehicle: Klucel (hydroxypropylcellulose) (HPC).
[9] abbreviates: endpoint: mean survival time, dose: 200.0 mg/kg/injection, schedule: Q01DX009 (ip), vehicle: Klucel (hydroxypropylcellulose) (HPC).
The mark [10] stands for this setting: endpoint: mean survival time, dose: 200.0 mg/kg/injection, schedule: Q04DX003 (ip), vehicle: Klucel (hydroxypropylcellulose) (HPC).
The mark [11] stands for this setting: endpoint: mean survival time, dose: 400.0 mg/kg/injection, schedule: Q01DX009 (ip), vehicle: Klucel (hydroxypropylcellulose) (HPC).
Where [12] appears, read: endpoint: mean survival time, dose: 400.0 mg/kg/injection, schedule: Q04DX003 (ip), vehicle: Klucel (hydroxypropylcellulose) (HPC).
Where [13] appears, read: endpoint: mean survival time, dose: 25.0 mg/kg/injection, schedule: Q01DX009 (ip), vehicle: saline with Tween-80.
[14] abbreviates: endpoint: mean survival time, dose: 50.0 mg/kg/injection, schedule: Q01DX009 (ip), vehicle: saline with Tween-80.
Where [15] appears, read: endpoint: mean survival time, dose: 100.0 mg/kg/injection, schedule: Q01DX001 (ip), vehicle: saline.
[16] abbreviates: endpoint: mean survival time, dose: 200.0 mg/kg/injection, schedule: Q01DX001 (ip), vehicle: saline.
The mark [17] stands for this setting: endpoint: mean survival time, dose: 400.0 mg/kg/injection, schedule: Q01DX001 (ip), vehicle: saline.

On to `COC(=O)Nc1cccc(-c2nc3ccc(NC(=O)OC)cc3c(=O)n2-c2ccccc2)c1`, for which the T/C under setting [1] is 94 % of control and 98 % of control; the T/C under setting [2] was 97 % of control and 101 % of control; the T/C under setting [3] is 102 % of control and 88 % of control; the T/C (endpoint: mean survival time, dose: 25.0 mg/kg/injection, schedule: Q01DX009 (ip), vehicle: other) is 113 % of control; the T/C (endpoint: mean survival time, dose: 25.0 mg/kg/injection, schedule: Q01DX009 (oral), vehicle: Klucel (hydroxypropylcellulose) (HPC)) is 93 % of control and 97 % of control; the T/C (endpoint: mean survival time, dose: 25.0 mg/kg/injection, schedule: Q04DX003 (ip), vehicle: saline) was 97 % of control. Moreover, the T/C runs as follows: (endpoint: mean survival time, dose: 50.0 mg/kg/injection, schedule: Q01DX009 (ip), vehicle: Klucel (hydroxypropylcellulose) (HPC)) 120 % of control; (endpoint: mean survival time, dose: 50.0 mg/kg/injection, schedule: Q01DX009 (ip), vehicle: other) 114 % of control; (endpoint: mean survival time, dose: 50.0 mg/kg/injection, schedule: Q01DX009 (oral), vehicle: Klucel (hydroxypropylcellulose) (HPC)) 102 % of control; (endpoint: mean survival time, dose: 50.0 mg/kg/injection, schedule: Q04DX003 (ip), vehicle: saline) 101 % of control; (endpoint: mean survival time, dose: 100.0 mg/kg/injection, schedule: Q01DX009 (oral), vehicle: Klucel (hydroxypropylcellulose) (HPC)) 97 % of control and 101 % of control; under setting [4], 103 % of control and 107 % of control. Besides, the T/C reads like this: (endpoint: mean survival time, dose: 200.0 mg/kg/injection, schedule: Q01DX009 (oral), vehicle: Klucel (hydroxypropylcellulose) (HPC)) 104 % of control and 121 % of control; (endpoint: mean survival time, dose: 200.0 mg/kg/injection, schedule: Q01DX009 (oral), vehicle: other) 105 % of control; under setting [5], 110 % of control; (endpoint: mean survival time, dose: 300.0 mg/kg/injection, schedule: Q01DX009 (oral), vehicle: other) 102 % of control; (endpoint: mean survival time, dose: 400.0 mg/kg/injection, schedule: Q01DX009 (oral), vehicle: Klucel (hydroxypropylcellulose) (HPC)) 116 % of control and 121 % of control; (endpoint: mean survival time, dose: 400.0 mg/kg/injection, schedule: Q01DX009 (oral), vehicle: other) 116 % of control. Also, the T/C runs as follows: under setting [6], 110 % of control; (endpoint: mean survival time, dose: 500.0 mg/kg/injection, schedule: Q01DX009 (oral), vehicle: other) 102 % of control; (endpoint: mean survival time, dose: 800.0 mg/kg/injection, schedule: Q01DX009 (oral), vehicle: Klucel (hydroxypropylcellulose) (HPC)) 119 % of control and 120 % of control; (endpoint: median survival time, dose: 25.0 mg/kg/injection, schedule: Q01DX009 (oral), vehicle: saline) 103 % of control; (endpoint: median survival time, dose: 50.0 mg/kg/injection, schedule: Q01DX009 (oral), vehicle: saline) 102 % of control; (endpoint: median survival time, dose: 100.0 mg/kg/injection, schedule: Q01DX009 (oral), vehicle: saline) 104 % of control. Besides, the T/C was 158 % of control (endpoint: median survival time, dose: 100.0 mg/kg/injection, schedule: Q04DX003 (ip), vehicle: other); 185 % of control (endpoint: median survival time, dose: 100.0 mg/kg/injection, schedule: Q04DX003 (ip), vehicle: saline); 104 % of control (endpoint: median survival time, dose: 200.0 mg/kg/injection, schedule: Q01DX009 (oral), vehicle: saline); 158 % of control (endpoint: median survival time, dose: 200.0 mg/kg/injection, schedule: Q04DX003 (ip), vehicle: Klucel (hydroxypropylcellulose) (HPC)); 119 % of control (endpoint: median survival time, dose: 200.0 mg/kg/injection, schedule: Q04DX003 (ip), vehicle: other); 154 % of control (endpoint: median survival time, dose: 200.0 mg/kg/injection, schedule: Q04DX003 (ip), vehicle: saline with Tween-80). For the same compound, the T/C runs as follows: (endpoint: median survival time, dose: 200.0 mg/kg/injection, schedule: Q04DX003 (oral), vehicle: saline) 113 % of control; (endpoint: median survival time, dose: 300.0 mg/kg/injection, schedule: Q04DX003 (oral), vehicle: saline) 123 % of control; (endpoint: median survival time, dose: 400.0 mg/kg/injection, schedule: Q04DX003 (ip), vehicle: Klucel (hydroxypropylcellulose) (HPC)) 178 % of control; (endpoint: median survival time, dose: 400.0 mg/kg/injection, schedule: Q04DX003 (ip), vehicle: saline with Tween-80) 190 % of control; (endpoint: median survival time, dose: 400.0 mg/kg/injection, schedule: Q04DX003 (oral), vehicle: saline) 112 % of control.

In the case of `OCCC/C=C/CCI`, the T/C under setting [7] was 93 % of control; the T/C under setting [8] is 112 % of control; the T/C under setting [9] was 90 % of control; the T/C under setting [10] is 109 % of control; the T/C under setting [11] was 98 % of control; the T/C under setting [12] is 91 % of control.

As for `Nc1ccc(C(=O)Oc2ccccc2)c(O)c1`, the T/C was 95 % of control under setting [8], 93 % of control under setting [10] and 95 % of control under setting [12].

Take `O=C(N/N=C/c1cccnc1)c1ccc(O)cc1`: the T/C was 91 % of control under setting [7], 96 % of control under setting [9] and 94 % of control under setting [11].

Take `CC(=NC1CCCCC1)Nc1ccc(NC(=O)c2ccc(C(=O)Nc3ccc(NC(C)=NC4CCCCC4)cc3)cc2)cc1`: the T/C reads like this: (endpoint: mean survival time, dose: 15.0 mg/kg/injection, schedule: Q01DX Z (ip), vehicle: carboxymethylcellulose (CMC)) 92 % of control; (endpoint: mean survival time, dose: 30.0 mg/kg/injection, schedule: Q01DX Z (ip), vehicle: carboxymethylcellulose (CMC)) 93 % of control; (endpoint: mean survival time, dose: 60.0 mg/kg/injection, schedule: Q01DX Z (ip), vehicle: carboxymethylcellulose (CMC)) 96 % of control.

Regarding `NC(=Nc1ccccc1)Nc1ccccc1`, the T/C was 101 % of control under setting [1]; 101 % of control under setting [2]; 97 % of control (endpoint: mean survival time, dose: 12.5 mg/kg/injection, schedule: Q01DX009 (ip), vehicle: saline with Tween-80); 89 % of control under setting [3]; 102 % of control under setting [13]; 101 % of control (endpoint: mean survival time, dose: 35.0 mg/kg/injection, schedule: Q01DX009 (ip), vehicle: saline). Moreover, the T/C under setting [14] was 97 % of control.

`c1ccc([CH2][Pb]([c]2ccccc2)([c]2ccccc2)[c]2ccccc2)cc1`: the T/C runs as follows: under setting [13], 93 % of control; under setting [14], 94 % of control; (endpoint: mean survival time, dose: 100.0 mg/kg/injection, schedule: Q01DX009 (ip), vehicle: saline with Tween-80) 96 % of control; (endpoint: mean survival time, dose: 200.0 mg/kg/injection, schedule: Q01DX001 (ip), vehicle: saline with Tween-80) 108 % of control; (endpoint: mean survival time, dose: 400.0 mg/kg/injection, schedule: Q01DX001 (ip), vehicle: saline with Tween-80) 97 % of control.

Take `OCCCCCCCCCCCO`: the T/C is, setting by setting: under setting [4], 100 % of control; under setting [5], 93 % of control; under setting [6], 93 % of control.

As to `O=C1CCN2C=CC=CC2=N1`, the T/C reads like this: (endpoint: mean survival time, dose: 100.0 mg/kg/injection, schedule: Q01DX009 (ip), vehicle: saline) 98 % of control; under setting [4], 100 % of control; (endpoint: mean survival time, dose: 200.0 mg/kg/injection, schedule: Q01DX009 (ip), vehicle: saline) 93 % of control; under setting [5], 101 % of control; (endpoint: mean survival time, dose: 400.0 mg/kg/injection, schedule: Q01DX009 (ip), vehicle: saline) 97 % of control; under setting [6], 106 % of control.

`CN(C)Cc1c(Cl)cccc1C(O)c1ccccc1` (centres undefined): the T/C (endpoint: mean survival time, dose: 50.0 mg/kg/injection, schedule: Q01DX001 (ip), vehicle: saline) was 96 % of control; the T/C under setting [15] was 106 % of control; the T/C under setting [16] was 106 % of control; the T/C under setting [17] was 95 % of control.

`O=C(NCCCl)n1cncn1`: the T/C is 100 % of control (endpoint: mean survival time, dose: 100.0 mg/kg/injection, schedule: Q01DX009 (ip), vehicle: acetone); 102 % of control (endpoint: mean survival time, dose: 100.0 mg/kg/injection, schedule: Q04DX003 (ip), vehicle: acetone); 92 % of control (endpoint: mean survival time, dose: 200.0 mg/kg/injection, schedule: Q01DX009 (ip), vehicle: acetone); 102 % of control (endpoint: mean survival time, dose: 200.0 mg/kg/injection, schedule: Q04DX003 (ip), vehicle: acetone); 103 % of control (endpoint: mean survival time, dose: 400.0 mg/kg/injection, schedule: Q01DX009 (ip), vehicle: acetone); 102 % of control (endpoint: mean survival time, dose: 400.0 mg/kg/injection, schedule: Q04DX003 (ip), vehicle: acetone).

`O=c1[nH]nc(N2CCOCC2)c(=O)[nH]1`: the T/C under setting [15] was 104 % of control, the T/C under setting [16] was 104 % of control and the T/C under setting [17] was 96 % of control.
